PMC5399052, “Integrating in vitro data and physiologically based kinetic (PBK) modelling to assess the in vivo potential developmental toxicity of a series of phenols” (Archives of Toxicology, 2016)
Read-outs that look alike come from different tables or passages of the source. Marks after values point to notes of the source that are not given here.

How the values were obtained:
in vitro = conditions: human, Caco-2
Procedure: (§1) Caco-2 cells (passages 37–40) were cultured in DMEM containing 25 mM HEPES (pH 7.4) supplemented with 10% (v/v) heat-inactivated FCS, 4500 mg/l glucose, 2 mM L-glutamine, 1% (v/v) minimal essential medium non-essential amino acids, 10,000 U/ml penicillin and 10 mg/ml streptomycin and maintained in polystyrene cell culture flasks (Corning, Amsterdam, the Netherlands) in a 5% CO2-humidified atmosphere at 37 °C. Cells were harvested after exposure to a trypsin–EDTA solution. Next, the cells were seeded onto Transwell® inserts (0.4 µm pored polycarbonate membrane, 12 mm diameter), at a density of 10^5 cells/cm^2. Cell culture medium (0.5 and 1.5 ml in the apical and basolateral compartment, respectively) was changed every two days.
(§2) Transport experiments were performed between day 20 and 23 post-seeding. Prior to the transport experiments, the cell culture medium was removed and cells were equilibrated in HBSS for 30–45 min in a 5% CO2-humidified atmosphere at 37 °C. In these 45 min, the integrity of the cell monolayer was examined by measuring the Trans Epithelial Electrical Resistance (TEER) of the cell layer using a Millicell ERS-2 Volt–Ohm Meter (Millipore, USA). Only cell layers with a TEER value between 500 and 1000 Ω cm^2 were used for the transport experiments. The transport buffer for the apical compartment consisted of HBSS containing 10 mM HEPES (pH 6.5) and 10 mM sodium taurocholate and the transport buffer for the basolateral compartment consisted of HBSS (pH 7.4) with 30 mg/ml bovine serum albumin. At first, 1.5 ml pre-warmed (37 °C) transport buffer was added to the basolateral compartment. Then, the transport experiments were started by adding 0.5 ml pre-warmed transport buffer containing the test compound (100 µM) to the apical compartment. After 60-min incubation in a 5% CO2-humidified atmosphere at 37 °C, a 75 µl sample was taken from the basolateral compartment and then from the apical compartment. Each sample was added to 150 µl ice-cold methanol, vortexed and put on ice immediately. […] Samples were analysed by UPLC–PDA (see “Quantification of analytes” section) for the presence of the test compound and possible metabolites.
(§3) TEER values were also measured at the end of the transport experiment, during the first washing step and compared to the TEER values measured before the transport experiment in order to assess toxicity of the test compound to the cell monolayer. […]
(§4) The apparent permeability coefficients (P app; cm/s) were calculated using the following algorithm: Papp=ΔQ/Δt/A∗C0 where P app is the apparent permeability coefficient (cm/s), ΔQ/Δt (nmol/s) is the amount of the test compound transported to the receiver chamber in a certain time period, A is the transwell membrane surface area (cm^2) and C 0 is the initial concentration of the test compound in the donor compartment (µM).
(§5) In order to assess the validity of the P app calculations for this experiment, the linearity of transport from the apical to the basolateral side was verified by taking samples from the basolateral side at t = 15, 30, 60 and 90 min, at a test concentration of 100 µM. […] The recovery of the test compound in each transport experiment was calculated with a mass balance equation, taking into account the amount of the test compound in the apical and basolateral compartment and the amount in the cells and/or filter of the Transwell® insert.

[1] = In vitro placental transport study (BeWo b30 transwell); conditions: human
Procedure: BeWo cells (passages 28–31) were cultured in DMEM with […] and supplemented with 10% (v/v) heat-inactivated FCS, 2 mM L-glutamine, 10,000 U/ml penicillin and 10 mg/ml streptomycin and maintained in polystyrene cell culture flasks (Corning, Amsterdam, the Netherlands) in a 5% CO2-humidified atmosphere at 37 °C. Cells were harvested after exposure to a trypsin–EDTA solution. Next, the cells were seeded onto Transwell® inserts (0.4-µm pored polycarbonate membrane, 12 mm diameter), with a density of 10^5 cells/cm^2. Cell culture medium (0.5 and 1.5 ml in the apical and basolateral compartment, respectively) was changed daily.
Transport experiments were performed 6 days post-seeding. The transport buffer consisted of HBSS with 30 mg/ml bovine serum albumin (apical compartment) and 10 mg/ml bovine serum albumin (basolateral compartment) representing mid- and late gestational maternal and embryonic/foetal rat plasma albumin levels, respectively (Honda et al. [2008]; Mcmullin et al. [2008]; Yeoh and Morgan [1974]). The transport experiments were performed for the same compounds and according to the same method as described for the Caco-2 transport experiments, except that only cell layers with a TEER value >190 Ω cm^2 were used for the transport experiments. The BeWo transport studies encompassed four independently performed experiments including two replicates in each assay. Samples were analysed by UPLC–PDA (see “Quantification of analytes” section) for the presence of the test compound and possible metabolites. The apparent permeability coefficients were calculated using the same method as described for the Caco-2 transport experiments.

[2] = rat, ref Humphrey et al. [1980], cited from earlier work
rat liver microsomes = conditions: cited from earlier work
Caco-2 cells = test: in vitro
Procedure: as §1, §2, §3, §4, §5

rat = test: In vitro PBK-based reverse dosimetry (predicted developmental toxicity); conditions: BMDL05 based on Cmax
Procedure: In vitro concentration–response data obtained with the EST were translated to in vivo dose–response values by applying PBK-based reverse modelling, performed as described by Strikwold et al. ([2013]) with some modifications. […] In vivo albumin and fat levels that are used in the extrapolation rules were adjusted to values that correspond to embryos/foetuses during mid-/late gestation. […] The vitro lipid fraction and albumin levels resembling the situation in the EST were 0.04% and 4.8 mg/ml, respectively (Verwei et al. [2006]).
The BMDL05 values of the in vivo study were derived using the BMDS version 2.6.

Structure (SMILES)	Papp A→B at 60 min, 100 µM (in vitro) [×10⁻⁶ cm/s]	Papp A→B at 60 min, 100 µM [1] [×10⁻⁶ cm/s]	ka, uptake rate from in situ intestinal perfusion [2]	ka, uptake rate from in situ intestinal perfusion ([2]; listed as phenol) [h⁻¹]	Km (rat liver microsomes; read-out: Km(app) glucuronidation (± SD), ref Strikwold et al. [2013]) [µM]	Vmax(app) glucuronidation (± SD) (rat liver microsomes; ref Strikwold et al. [2013])	ka, predicted oral absorption coefficient (Caco-2 cells; rat, Caco-2, 100 µM) [h⁻¹]	Potency ratio (phenol / p-substituted phenol), in vitro PBK approach (rat) [fold]	ka, predicted oral absorption coefficient (Caco-2 cells; Caco-2) [h⁻¹]
Oc1ccccc1 [Phenol]	48.4 ± 8.6	41.6 ± 3.4	7.62^b /h	7.62	465 ± 66	90 ± 4 nmol/min/mg microsomal protein	–	–	–
Oc1ccc(F)cc1 [p-Fluorophenol, p-fluorophenol]	47.7 ± 13.8	34.2 ± 3.3	–	–	–	–	7.52	0.7	–
CC(=O)c1ccc(O)cc1 [p-Methylketophenol, p-methylketophenol]	–	–	–	–	–	–	–	0.5	8.18
